# Legend:
# CYP2D6 [1] = target: T1, CYP2D6 (Homo sapiens, UniProt P10635); details: 20 μM substrate; for CL rank order: degree of metabolism by rate of ROS-dependent CL production, reconstituted recombinant CYP2D6, 1 mM NADPH, 37° C.
# Experimental: Stock solutions of NADPH were freshly prepared before each experiment in buffer. Test compounds were prepared as 20 mM stock solutions in DMSO and diluted to 2 mM in acetonitrile. […] Reactions were performed at 37° C. in 500 μL deep 96-well blocks. Reactions were incubated for 3 min prior to adding NADPH. Aliquots of the reaction mixture (10 μL) were removed at 0 (immediately after the addition of NADPH), 5,10, 20 and 30 min and quenched with 20 μL of acetonitrile and placed in 96-well polypropylene plates. ROS formation was quantified using a chemiluminescence reaction as described below.
# CYP2D6 [2] = target: T1, CYP2D6; details: degree of metabolism by parent compound remaining after 10 min; 5 μM substrate, recombinant CYP2D6 microsomes, 1 mM NADPH, 37° C.
# Experimental: Test compounds were prepared as 20 mM stock solutions in DMSO and diluted to 2 mM in acetonitrile. […] Unless otherwise specified, reaction mixtures consisted of 5 μM substrate, 30 pmol/mL recombinant CYP2D6 microsomes (GenTest™) and 1 mM NADPH prepared in buffer to a final volume of 750 μl. Reactions were performed at 37° C. in 1.2 mL marsh tubes. Reactions were incubated for 3 min prior to adding NADPH. Aliquots of the reaction mixture (100 μL) were removed at 0 (immediately after the addition of NADPH), 5, 10, 20 and 30 min and quenched with 200 μL of acetonitrile (containing 2.5 μM terfenadine). Samples were placed at −20° C. for 1 hr and centrifuged using a Thermo IEC Centra GP8R table top centrifuge (3,000 rpm for 10 min). The supernatant fraction was transferred to 500 μL 96-well blocks for LC-MS analysis.
# LC-MS analysis was performed using a HPLC system consisting of a Shimadzu LC-10AD pump and Perkin Elmer Series 200 Autosampler coupled to an Applied Biosystems Sciex API 3000 triple-quadrapole mass spectrometer. Test compounds were separated on an Agilent ZORBAX® Bonus-RP column (30×2.1 mm, 3.5 μm particle size) maintained at 30° C. […] The column was equilibrated with 100% buffer A for 2 min between each run. The HPLC eluant was directly introduced into the mass spectrometer equipped with a Turbo Ionspray interface operated at 4500 V in the positive mode. […] Compounds were detected by single ion monitoring using the following parameters: declustering potential, 35 V; focusing potential, 200 V; exit potential, 10 V.
# T1 sequence (P10635 whole entry): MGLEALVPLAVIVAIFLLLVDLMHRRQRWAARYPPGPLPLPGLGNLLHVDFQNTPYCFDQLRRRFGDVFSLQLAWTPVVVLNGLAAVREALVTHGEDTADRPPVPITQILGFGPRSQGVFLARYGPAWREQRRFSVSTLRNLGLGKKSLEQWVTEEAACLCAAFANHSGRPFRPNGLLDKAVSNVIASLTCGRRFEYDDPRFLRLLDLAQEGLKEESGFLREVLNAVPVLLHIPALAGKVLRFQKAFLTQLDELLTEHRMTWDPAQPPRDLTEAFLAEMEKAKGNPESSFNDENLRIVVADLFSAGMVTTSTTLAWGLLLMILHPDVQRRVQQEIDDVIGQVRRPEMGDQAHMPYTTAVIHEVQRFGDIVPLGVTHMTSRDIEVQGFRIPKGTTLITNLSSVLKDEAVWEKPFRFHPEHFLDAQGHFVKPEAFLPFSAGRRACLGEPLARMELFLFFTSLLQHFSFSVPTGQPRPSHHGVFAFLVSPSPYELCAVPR
SMILES,CL rank order (CYP2D6 [1]),LC-MS rank order (CYP2D6 [2]),"increase in the rate of CL production over background (no substrate) (CYP2D6 [1]; CYP2D6 reaction, 30 min time course)"
C=CCc1ccccc1OCC(O)CNC(C)C (stereo not drawn) [alprenolol],3 (high (a rate of CL production above 800 Units/min)),3 (high (less than 20% of parent compound remaining after 10 min)),
COc1ccc2c(c1)[C@]13CCCC[C@@H]1[C@H](C2)N(C)CC3 [dextromethorphan],2 (moderate (a rate of CL production between 400 (background) and 800 CL Units/min)),2 (moderate (between 20 and 75% of parent compound remaining after 10 min)),approximately two-fold
COc1ccc([C@@H]2Sc3ccccc3N(CCN(C)C)C(=O)[C@@H]2OC(C)=O)cc1 [diltiazem],1 (low (a rate of CL production equal to or below that observed in the absence of substrate (400 Units/min))),1 (low (more than 75% of parent compound remaining after 10 min)),
NC(=O)N1c2ccccc2C=Cc2ccccc21 [carbamazepine],1 (low (a rate of CL production equal to or below that observed in the absence of substrate (400 Units/min))),1 (low (more than 75% of parent compound remaining after 10 min)),
COc1ccc(CCN2CCC(Nc3nc4ccccc4n3Cc3ccc(F)cc3)CC2)cc1 [astemizole],2 (moderate (a rate of CL production between 400 (background) and 800 CL Units/min)),2 (moderate (between 20 and 75% of parent compound remaining after 10 min)),
O=C(CCCN1CCC(O)(c2cccc(C(F)(F)F)c2)CC1)c1ccc(F)cc1 [trifluperidol],2 (moderate (a rate of CL production between 400 (background) and 800 CL Units/min)),1 (low (more than 75% of parent compound remaining after 10 min)),
CCC(C)n1ncn(-c2ccc(N3CCN(c4ccc(OCC5COC(Cn6cncn6)(c6ccc(Cl)cc6Cl)O5)cc4)CC3)cc2)c1=O (stereo not drawn) [itraconazole],1 (low (a rate of CL production equal to or below that observed in the absence of substrate (400 Units/min))),1 (low (more than 75% of parent compound remaining after 10 min)),
